{"source": "paper PMC11274883", "about": "“Anticancer Effect of Pt^[sequence], Pt^II5MESS, Pt^II56MESS and Their Platinum(IV)-Dihydroxy Derivatives against Triple-Negative Breast Cancer and Cisplatin-Resistant Colorectal Cancer” (Cancers, 2024)", "assay_type_in_all_cases": "cell-based", "key": {"[1]": {"test_system": "MCF10A", "test": "WST-1 cytotoxicity, 72 h", "details": "mean ± SEM", "experimental": "Cells were seeded in 96-well flat-bottom culture plates at a concentration of 1000 cells per well. […] After 72 h, the medium was removed and replaced with new medium. The cell viability reagent WST-1 (10 µL, Roche Diagnostics, Indianapolis, IN, USA) was added to each well. After an hour, the absorbance was measured at 450 nm using a versatile microplate reader (Bio-strategy, Campbellfield, VIC, Australia). Three separate experiments were performed, each with n = 3 replicates. GraphPad prism 10 was used to calculate apparent IC50 values using the nonlinear regression model Y = Bottom + (Top-Bottom)/(1 + 10^(X-LogIC50)) where Top and bottom are plateaus in the y-axis (% survival). The R^2 value of the curve fits ranged from 0.8972 to 0.9794."}, "[2]": {"test_system": "MDA−MB−231 cells", "test": "DCFDA cellular ROS detection assay", "details": "complexes at IC50, TBHP 20 µM", "experimental": "(§1) DCFDA/H2DCFDA-cellular ROS Assay Kit (Abcam, Cambridge, MA, USA) was used to investigate the production of ROS in treated cells, as previously described. MDA−MB−231 or HT29 cells were seeded at a total concentration of 2500 cells/well in 96-well plates and incubated overnight. DMEM was then removed, and cells washed with 1× kit buffer, and stained with 25 µM 2′,7′-dichlorofluorescein diacetate (DCFH-DA) for 45 min. […] After that, the plates were scanned using the Glo-Max®-Multimode microplate reader (Promega Corporation, Alexandra, VIC, Australia) at an excitation/emission of 485/535 nm to detect fluorescence (relative fluorescence units, or RFU) at various time points. A positive control was generated using 20 µM tert-butyl hydroperoxide (TBHP), and the same procedure was applied with DCFDA. Three independent experiments in triplicates were implemented."}, "[3]": {"test_system": "HT29 cells", "test": "DCFDA cellular ROS detection assay", "details": "complexes at IC50, TBHP 20 µM", "experimental": "as §1"}, "[4]": {"test_system": "MDA−MB−231 cells", "test": "Western blot protein expression", "details": "MDA−MB−231, IC50, 72 h", "experimental": "(§2) Protein extraction was then performed on ice. Media were collected in Eppendorf tubes, and centrifuged at 500× g for 5 min at 4 °C. Meanwhile, 200 µL of lysis RIPA buffer, made up of 150 mM NaCl, 50 mM Tris-HCl, pH 8.0, 0.1% Triton X-100, 0.5% sodium deoxycholate, 0.1% SDS and 1 mM sodium orthovanadate, was added to each well, the cells were scrapped into the buffer, and added to the media-derived pellets. The tubes were placed on the shaker for 10 min at 4 °C. Then, cell extracts were centrifuged at 12,000× g for 15 min at 4 °C, and the supernatants (containing the proteins) were collected. The Bio-Rad-DC protein assay (Bio-Rad, Hercules, CA, USA) was used to assess protein content. Laemmli protein sample buffer (4×) with β-mercaptoethanol (9%) was used to prepare a final protein concentration of 20 µg. The samples were then heated at 100 °C for 5 min. A final volume of 30 µL of each sample was added per well and subjected to SDS-PAGE using Bolt 4–12% Bis-Tris gel (Thermo Fisher, Eugene, OR, USA) at 80 V for 30 min and then 120 V for 60 min with PageRuler™ Prestained Protein or SeeBlue Prestained Protein Ladder (Thermo Fisher, Eugene, OR, USA). Proteins were subsequently transferred to a 0.2 µm PVDF membrane (Amersham, Cytiya) using a semi-dry blot transfer. The membrane was then blocked in 5% BSA in TBST, for 1 h and probed overnight at 4 °C with primary antibodies against several cell proliferation, apoptotic, anti-apoptotic, microtubule and autophagic protein markers listed in Table S7 as per the manufacturer’s protocol. The primary antibody was then removed, washed three times for 10 min with TBST and then membranes were treated with either mouse or rabbit HRP-coupled secondary antibodies (1/3000) for 1 h and 30 min. Protein band detection was then performed using the chemiluminescence ECL kit (Thermo Fisher, Eugene, OR, USA). Blot images were obtained using the Odyssey® FC imaging system (LI-COR Biosciences, Lincoln, NE, USA) and band intensities were quantified relatively to glyceraldehyde-3-phosphate dehydrogenase (GAPDH) and then normalised each replicate gel to its corresponding no treatment control using the ImageJ v1.53t software (National Institutes of Health, Bethesda, MD, USA). Each marker results from the same experiment or parallel experiment where the gels were processed in parallel. Three independent experiments per marker were conducted."}, "[5]": {"test_system": "HT29 cells", "test": "Western blot protein expression", "details": "HT29, IC50, 72 h", "experimental": "as §2"}, "[6]": {"details": "representative blot Figure S30G"}, "[7]": {"details": "representative blot Figure S30H"}}}
{"smiles": "Cc1cc2cccnc2c2ncccc12.N[C@H]1CCCC[C@@H]1N.O=[N+]([O-])[O-].O=[N+]([O-])[O-].[OH][Pt+2][OH]", "note": "[Pt^IV5MESS(OH)2, [Pt(5-methyl-1,10-phenanthroline)(1S,2S-diaminocyclohexane)(dihydroxy)](NO3)2]", "values": [{"measurement": "IC50", "setting": "[1]", "value": "12.2 ± 1.48", "unit": "µM"}, {"measurement": "ROS production", "setting": "[2]; MDA−MB−231, 24 h", "value": 245.26, "unit": "RFU"}, {"measurement": "ROS production", "setting": "[2]; MDA−MB−231, 48 h", "value": 264.00, "unit": "RFU"}, {"measurement": "ROS production", "setting": "[2]; MDA−MB−231, 72 h", "value": 314.78, "unit": "RFU"}, {"measurement": "ROS production", "setting": "[3]; HT29, 24 h", "value": 234.55, "unit": "RFU"}, {"measurement": "ROS production", "setting": "[3]; HT29, 48 h", "value": 278.33, "unit": "RFU"}, {"measurement": "ROS production", "setting": "[3]; HT29, 72 h", "value": 296.67, "unit": "RFU"}, {"measurement": "β-actin/GAPDH normalized to control (1)", "setting": "[4]; representative blot Figure S24A", "value": 0.8788}, {"measurement": "β-tubulin/GAPDH normalized to control (1)", "setting": "[4]; representative blot Figure S24B", "value": 0.3985}, {"measurement": "α-tubulin/GAPDH normalized to control (1)", "setting": "[4]; representative blot Figure S24C", "value": 1.177}, {"measurement": "p-AKT/AKT/GAPDH normalized to control (1)", "setting": "[4]; representative blot Figure S25A", "value": 0.9345}, {"measurement": "p-ERK/ERK/GAPDH normalized to control (1)", "setting": "[4]; representative blot Figure S25B", "value": 0.144}, {"measurement": "p53/GAPDH normalized to control (1)", "setting": "[4]; representative blot Figure S25C", "value": 1.183}, {"measurement": "p21/GAPDH normalized to control (1)", "setting": "[4]; representative blot Figure S25D", "value": 1.042}, {"measurement": "Bax/GAPDH normalized to control (1)", "setting": "[4]; representative blot Figure S26A", "value": 1.846}, {"measurement": "Bcl2/GAPDH normalized to control (1)", "setting": "[4]; representative blot Figure S26B", "value": 0.7914}, {"measurement": "Cytochrome C/GAPDH normalized to control (1)", "setting": "[4]; representative blot Figure S26C", "value": 2.795}, {"measurement": "Procaspase 8/GAPDH normalized to control (1)", "setting": "[4]; representative blot Figure S26D", "value": 0.3546}, {"measurement": "Cleaved BID/GAPDH normalized to control (1)", "setting": "[4]; representative blot Figure S26E", "value": 5.948}, {"measurement": "Procaspase 9/GAPDH normalized to control (1)", "setting": "[4]; representative blot Figure S26F", "value": 0.3022}, {"measurement": "Procaspase 3/GAPDH normalized to control (1)", "setting": "[4]; representative blot Figure S26G", "value": 0.7167}, {"measurement": "PARP-1/GAPDH normalized to control (1)", "setting": "[4]; representative blot Figure S26H", "value": 0.5187}, {"measurement": "Beclin1/GAPDH normalized to control (1)", "setting": "[4]; representative blot Figure S27A", "value": 0.9374}, {"measurement": "ATG5/GAPDH normalized to control (1)", "setting": "[4]; representative blot Figure S27B", "value": 1.065}, {"measurement": "ATG16L1/GAPDH normalized to control (1)", "setting": "[4]; representative blot Figure S27C", "value": 1.203}, {"measurement": "ATG9A/GAPDH normalized to control (1)", "setting": "[4]; representative blot Figure S27D", "value": 0.3984}, {"measurement": "ATG4B/GAPDH normalized to control (1)", "setting": "[4]; representative blot Figure S27E", "value": 2.797}, {"measurement": "LC3B/GAPDH normalized to control (1)", "setting": "[4]; representative blot Figure S27F", "value": 0.6059}, {"measurement": "β-actin/GAPDH normalized to control (1)", "setting": "[5]; representative blot Figure S28A", "value": 0.2948}, {"measurement": "β-tubulin/GAPDH normalized to control (1)", "setting": "[5]; representative blot Figure S28B", "value": 0.1611}, {"measurement": "α-tubulin/GAPDH normalized to control (1)", "setting": "[5]; representative blot Figure S28C", "value": 0.1518}, {"measurement": "p-AKT/AKT/GAPDH normalized to control (1)", "setting": "[5]; representative blot Figure S29A", "value": 0.4249}, {"measurement": "p-ERK/ERK/GAPDH normalized to control (1)", "setting": "[5]; representative blot Figure S29B", "value": 1.297}, {"measurement": "p53/GAPDH normalized to control (1)", "setting": "[5]; representative blot Figure S29C", "value": 3.349}, {"measurement": "p21/GAPDH normalized to control (1)", "setting": "[5]; representative blot Figure S29D", "value": 2.658}, {"measurement": "Bax/GAPDH normalized to control (1)", "setting": "[5]; representative blot Figure S30A", "value": 3.075}, {"measurement": "Bcl2/GAPDH normalized to control (1)", "setting": "[5]; representative blot Figure S30B", "value": 0.4381}, {"measurement": "Cyt C/GAPDH normalized to control (1)", "setting": "[5]; representative blot Figure S30C", "value": 6.184}, {"measurement": "Procaspase 8/GAPDH normalized to control (1)", "setting": "[5]; representative blot Figure S30D", "value": 0.4372}, {"measurement": "Cleaved BID/GAPDH normalized to control (1)", "setting": "[5]; representative blot Figure S30E", "value": 2.712}, {"measurement": "Procaspase 9/GAPDH normalized to control (1)", "setting": "[5]; representative blot Figure S30F", "value": 0.2026}, {"measurement": "Cleaved caspase 3/GAPDH normalized to control (1)", "setting": "[5]; [6]", "value": 7.887}, {"measurement": "Procaspase 3/GAPDH normalized to control (1)", "setting": "[5]; [6]", "value": 1.238}, {"measurement": "Cleaved PARP-1/GAPDH normalized to control (1)", "setting": "[5]; [7]", "value": 5.761}, {"measurement": "PARP-1/GAPDH normalized to control (1)", "setting": "[5]; [7]", "value": 0.6207}, {"measurement": "Beclin1/GAPDH normalized to control (1)", "setting": "[5]; representative blot Figure S31A", "value": 6.943}, {"measurement": "ATG5/GAPDH normalized to control (1)", "setting": "[5]; representative blot Figure S31B", "value": 0.2364}, {"measurement": "ATG16L1/GAPDH normalized to control (1)", "setting": "[5]; representative blot Figure S31C", "value": 2.006}, {"measurement": "ATG9A/GAPDH normalized to control (1)", "setting": "[5]; representative blot Figure S31D", "value": 2.334}, {"measurement": "ATG4B/GAPDH normalized to control (1)", "setting": "[5]; representative blot Figure S31E", "value": 0.5922}, {"measurement": "LC3B/GAPDH normalized to control (1)", "setting": "[5]; representative blot Figure S31F", "value": 1.713}]}
